Read-outs that look alike come from different tables or passages of the source. Marks after values point to notes of the source that are not given here.

In data set [1] the target is T1, Butyrylcholinesterase from equine serum (BChE) (Equus caballus, UniProt P81908).
T1 construct: Butyrylcholinesterase from equine serum (BChE); purchased Merck kGaA, Darmstadt, Germany; host or cells: equine serum
As to the kind of experiment: Butyrylcholinesterase inhibition assay (Ellman method, modified). It is filed as biochemical. From the text: (§1) 5,5′-Dithiobis(2-nitrobenzoic acid), (DTNB), acetylthiocholine iodide, butyryl-thiocholine iodide, acetylcholinesterase from Electrophorus electricus, type VI-S (aChE), Butyrylcholinesterase from equine serum (BChE), neostigmine bromide, and sodium dodecyl sulfate (SDS) were purchased from Merck kGaA, Darmstadt, Germany.
(§2) Referring to both the Ellman and Jin et al. methods, we identified acetylcholinesterase/butyrylcholinesterase activity, implementing minor modifications. In brief, the assay was carried out on a 96-well plate, with each well containing 140 µL 0.1 M phosphate buffer (pH 8.0), 10 µL of stock solution of Mv, or Mv 3-glc or Mv 3,5-diglc, 10 µL AChE/BChE (1 units/mL). The plate was incubated for 10 min at 25 °C. Subsequently, 10 μL of a 10 mM DTNB was added to the reaction mixture. In the following step, the reaction was initiated by adding 10 μL of a 14 mM acetylthiocholine iodide/butyryl-thiocholine iodide. The plate was shaken for one minute and finally 20 µL of 5% SDS was added in order to stop the reaction. Control wells, which contained the same composition except for the studied compounds (10 µL, 70% ethanol), were included. […] All of the reactions were performed in five repetitions. The percent of AChE/BChE inhibition was calculated using the following formula:(1) %Inhibition=Ac−As/Ac·100% where: As refers to the absorbance of the sample containing Mvs and Ac refers to the absorbance of the control sample. The studies of AChE and BChE inhibition were also performed depending on the concentration of the drug, neostigmine, as a positive control.

For data set [2], the target named is T2, acetylcholinesterase from Electrophorus electricus, type VI-S (AChE) (Electrophorus electricus, UniProt O42275).
T2 construct: purchased Merck kGaA, Darmstadt, Germany
The experiment in a line: Acetylcholinesterase inhibition assay (Ellman method, modified). It is filed as biochemical.
Source text: as §1, §2

A further data set concerns the target T3, COX-1 (ovine) (Ovis aries, UniProt P05979).
T3 construct: purchased Cayman Chemical, Ann Arbor, MI, USA 701050
T3 sequence (P05979 25-600): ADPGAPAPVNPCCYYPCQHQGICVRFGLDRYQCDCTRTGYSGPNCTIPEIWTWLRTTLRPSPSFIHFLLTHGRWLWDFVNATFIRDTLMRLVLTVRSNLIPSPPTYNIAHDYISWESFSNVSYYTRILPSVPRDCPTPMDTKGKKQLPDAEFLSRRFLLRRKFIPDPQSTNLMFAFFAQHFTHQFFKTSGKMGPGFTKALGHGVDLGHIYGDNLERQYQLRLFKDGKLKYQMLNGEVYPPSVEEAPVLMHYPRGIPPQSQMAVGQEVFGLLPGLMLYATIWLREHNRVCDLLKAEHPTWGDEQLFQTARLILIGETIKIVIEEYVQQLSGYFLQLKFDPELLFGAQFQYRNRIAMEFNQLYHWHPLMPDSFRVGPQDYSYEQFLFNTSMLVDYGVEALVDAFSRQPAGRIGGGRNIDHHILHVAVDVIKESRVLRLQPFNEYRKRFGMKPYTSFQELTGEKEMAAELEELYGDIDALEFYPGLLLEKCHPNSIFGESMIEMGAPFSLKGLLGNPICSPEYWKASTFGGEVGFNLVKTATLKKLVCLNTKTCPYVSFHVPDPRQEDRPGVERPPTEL
The experiment in a line: COX colorimetric inhibitor screening assay, COX-1. The data set is classed as biochemical. Here is the method:
(§3) Firstly, the plate was carefully shaken for a few seconds and incubated for 5 min at 25 °C. Secondly, 20 μL of colorimetric substrate solution was added to each plate’s well. It was the addition of 20 μL of arachidonic acid (final concentration in reaction mixture 100 µM) which initiated the reaction. Thirdly, the plate was shaken again for a few seconds and incubated for two min at 25 °C. […] The percentage of COX inhibition was calculated using the Equation (1): […]
(§4) The IC50 parameter was calculated referring to plots showing the relation between percentage of COX inhibition and concentration of the compounds.

The target in data set [3] is T4, COX-2 (human recombinant) (Homo sapiens, UniProt P35354).
T4 construct: purchased Cayman Chemical, Ann Arbor, MI, USA 701050
T4 sequence (P35354 18-604): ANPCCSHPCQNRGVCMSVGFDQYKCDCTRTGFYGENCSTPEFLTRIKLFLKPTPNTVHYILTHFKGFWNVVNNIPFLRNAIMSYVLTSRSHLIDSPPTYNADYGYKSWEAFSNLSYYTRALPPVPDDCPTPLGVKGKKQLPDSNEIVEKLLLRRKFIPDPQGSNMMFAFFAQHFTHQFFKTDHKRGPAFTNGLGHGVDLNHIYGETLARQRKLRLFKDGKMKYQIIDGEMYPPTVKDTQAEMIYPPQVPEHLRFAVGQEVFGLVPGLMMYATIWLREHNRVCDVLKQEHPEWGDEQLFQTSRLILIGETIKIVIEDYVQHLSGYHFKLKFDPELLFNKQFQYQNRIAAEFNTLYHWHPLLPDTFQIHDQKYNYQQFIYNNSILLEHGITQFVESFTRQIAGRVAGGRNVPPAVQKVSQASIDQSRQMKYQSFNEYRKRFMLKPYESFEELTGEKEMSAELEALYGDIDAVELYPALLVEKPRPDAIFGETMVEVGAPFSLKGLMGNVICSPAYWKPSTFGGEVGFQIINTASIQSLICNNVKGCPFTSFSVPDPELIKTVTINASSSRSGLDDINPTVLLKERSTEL
As to the kind of experiment: COX colorimetric inhibitor screening assay, COX-2. The data set is classed as biochemical. The note with it: for Selectivity Index COX-2/COX-1: ratio of IC50 COX-2 to IC50 COX-1. As for the experimental part:
as §3, §4

For data set [4] the following is noted: physiological pH, species established in previous publication, cited from earlier work.
[5] abbreviates: compound concentration 100 µM, 100 µM.
Setting [6] is: compound concentration 100 µM, read-out: Inhibition of BChE (%).
[7] abbreviates: compound concentration 100 µM, read-out: Inhibition of AChE (%).

T2 sequence (O42275 24-633): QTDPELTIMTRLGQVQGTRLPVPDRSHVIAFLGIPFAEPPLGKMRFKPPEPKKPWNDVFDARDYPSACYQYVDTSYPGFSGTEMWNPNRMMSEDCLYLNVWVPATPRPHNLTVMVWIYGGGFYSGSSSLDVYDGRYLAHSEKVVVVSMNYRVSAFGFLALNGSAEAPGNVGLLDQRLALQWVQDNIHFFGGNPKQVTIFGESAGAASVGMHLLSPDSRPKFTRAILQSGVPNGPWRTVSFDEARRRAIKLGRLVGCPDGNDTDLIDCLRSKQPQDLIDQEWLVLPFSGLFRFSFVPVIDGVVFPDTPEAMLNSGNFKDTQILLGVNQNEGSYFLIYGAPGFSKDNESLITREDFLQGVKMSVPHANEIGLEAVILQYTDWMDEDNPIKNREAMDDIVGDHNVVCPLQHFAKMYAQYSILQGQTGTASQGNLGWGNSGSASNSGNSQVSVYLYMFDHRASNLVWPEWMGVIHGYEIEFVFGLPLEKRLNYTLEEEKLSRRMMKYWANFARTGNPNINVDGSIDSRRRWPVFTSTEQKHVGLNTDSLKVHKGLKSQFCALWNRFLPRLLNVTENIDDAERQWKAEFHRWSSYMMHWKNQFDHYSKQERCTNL
T1 sequence (P81908 whole entry): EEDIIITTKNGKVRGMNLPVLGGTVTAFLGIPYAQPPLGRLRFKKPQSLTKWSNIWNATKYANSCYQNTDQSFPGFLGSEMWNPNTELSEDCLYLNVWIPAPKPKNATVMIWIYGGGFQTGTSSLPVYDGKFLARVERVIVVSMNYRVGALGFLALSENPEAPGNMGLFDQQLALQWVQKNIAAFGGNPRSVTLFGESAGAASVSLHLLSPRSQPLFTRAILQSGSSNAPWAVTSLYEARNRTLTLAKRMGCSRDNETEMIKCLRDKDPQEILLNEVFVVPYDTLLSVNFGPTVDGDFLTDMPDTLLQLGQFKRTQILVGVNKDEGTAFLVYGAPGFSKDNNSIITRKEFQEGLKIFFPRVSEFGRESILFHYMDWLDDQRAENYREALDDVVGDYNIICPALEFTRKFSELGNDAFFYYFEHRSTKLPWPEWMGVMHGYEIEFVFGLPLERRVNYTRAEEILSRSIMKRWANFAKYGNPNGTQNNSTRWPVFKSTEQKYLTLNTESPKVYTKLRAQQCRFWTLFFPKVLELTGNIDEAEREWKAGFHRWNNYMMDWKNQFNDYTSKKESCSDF

`CN(C)C(=O)Oc1cccc([N+](C)(C)C)c1` [Neostigmine, neostigmine bromide, reference compound] came in with an inhibition at 20.28 µM in data set [1] (neostigmine concentration 20.28 µM, positive control) of 50 ± 4.2%. The IC50 in data set [1] (positive control) came to 20.3 ± 1.7 µM; in data set [2] (positive control) it was 0.17 ± 0.01 µM. This compound also registered an inhibition at 0.17 µM in data set [2] (neostigmine concentration 0.17 µM, positive control) of 50 ± 1.2%.

For `COc1cc(-c2[o+]c3cc(O)cc(O)c3cc2OC2OC(CO)C(O)C(O)C2O)cc(OC)c1O` (stereo not drawn) [Mv 3-glc, malvidin 3-O-glucoside], the IC50 against COX-1 (ovine) was 74.78 ± 0.06 µM; in data set [3], 39.9 ± 3.02 µM. In addition, the “Selectivity Index COX-2/COX-1” value in data set [3] is 0.53. Further, the “fM (population of the species)” value was 3.49% in data set [4], 18.33% in data set [4] (listed as Mv 3-glc^2−) and 78.18% in data set [4] (listed as Mv 3-glc^−). Further, in data set [1] (setting [5]), the “Inhibition of BChE (%)” value is 22.1 ± 3.0 ^a %. The inhibition at 100 µM is 22.1 ± 3% in data set [1] (read-out: Inhibition of BChE (%), compound concentration 100 µM) and 26.3 ± 3.06% in data set [2] (read-out: Inhibition of AChE (%), compound concentration 100 µM). The “Inhibition of AChE (%)” value in data set [2] (setting [5]) was 26.3 ± 3.1 ^a %.

As to `COc1cc(-c2[o+]c3cc(O)cc(OC4OC(CO)C(O)C(O)C4O)c3cc2OC2OC(CO)C(O)C(O)C2O)cc(OC)c1O` (stereo not drawn) [Mv 3,5-diglc, malvidin 3,5-O-diglucoside], the IC50 at COX-1 (ovine) amounted to 90.4 ± 1.92 µM; in data set [3], 66.5 ± 1.93 µM. Also, the “Selectivity Index COX-2/COX-1” value in data set [3] is on record as 0.83. For the same compound, the “fM (population of the species)” value is reported as 39.19% in data set [4] and 60.70% in data set [4] (listed as Mv 3,5-diglc^–). The figures for the inhibition at 100 µM in data set [1] (setting [6]) and in data set [2] (setting [7]) were 13.4 ± 2.4% and 11.9 ± 4.5%, respectively.

On to `COc1cc(-c2[o+]c3cc(O)cc(O)c3cc2O)cc(OC)c1O` [Mv, malvidin], for which the IC50 on COX-1 (ovine) was determined as 12.4 ± 0.7 µM; in data set [3], 2.76 ± 0.16 µM. Further, the “Selectivity Index COX-2/COX-1” value in data set [3] is listed as 0.22. Besides, the “fM (population of the species)” value in data set [4] is listed as 39.56%; in data set [4] (listed as Mv^2−), 8.08%; in data set [4] (listed as Mv^3−) it was 0.13%; in data set [4] (listed as Mv^−), 52.15%. For the same compound, the inhibition at 100 µM in data set [1] (setting [6]) stood at 10.2 ± 2.2%; in data set [2] (setting [7]), 19.5 ± 2.3%.

These data come from paper PMC10708353, “Malvidin and Its Mono- and Di-Glucosides Forms: A Study of Combining Both In Vitro and Molecular Docking Studies Focused on Cholinesterase, Butyrylcholinesterase, COX-1 and COX-2 Activities” (Molecules, 2023).
